Patent publication US20250040541A1, “AN ANTIMICROBIAL LIQUID COMPOSITION, PROCESS FOR PREPARING THE SAME AND METHOD OF USE THEREOF” (ISP Investments LLC, priority 2021, published 2025)

How the values were obtained:
Format in all cases: cell-based
[1] = test system: Gram-positive bacteria (Staphylococcus aureus 6538); test: 28-day double inoculation challenge test in sunscreen emulsion base, Gram-positive inoculum
Method: (§1) The test was conducted in sunscreen emulsion base, pH 7 (Table 3).
(§2) Method: The emulsion was formulated with 2% of the blend #1 or with the appropriate controls, plus water to add up to the 2% of the concentration in the emulsion.
(§3) Briefly, each tested sample was split into three containers to be challenged, respectively, with either of the three classes of common contaminants: Gram-positive bacteria, Gram-negative bacteria, and fungi. Accordingly, three types of inocula were prepared as outlined in the Table 4. The Gram-positive bacterial inoculum consisted of the single microorganism, while the Gram-negative bacterial inoculum and fungal inoculum, each, consisted of more than one species pooled together (Table 4).
(§4) The test samples were spiked with the microbial inoculum on days 0 and 21, with the final concentration of bacteria being 10^6 cfu/g and the final concentration of fungi being 10^5 cfu/g. Inoculated samples were incubated at ambient temperature. On days 2, 7, 21 and 28 the samples were plated to recover viable microorganisms. Letheen Agar was used for the recovery of bacteria and on Potato Dextrose Agar was used for the recovery of fungi.

[2] = test system: Fungi (Candida albicans 10231 and Aspergillus brasiliensis 16404); test: 28-day double inoculation challenge test in sunscreen emulsion base, fungal inoculum
Method: as §1, §2, §3, §4

[3] = test system: Gram-negative bacteria (Escherichia coli 8739, Pseudomonas aeruginosa 9027, Burkholderia cepacia 25416); test: 28-day double inoculation challenge test in sunscreen emulsion base, Gram-negative inoculum
Method: as §1, §2, §3, §4

[4] = 0.75% active, 1.25% water in sunscreen emulsion base, pH 7, 2 days
[5] = 0.75% active, 1.25% water in sunscreen emulsion base, pH 7, 7 days
[6] = 0.75% active, 1.25% water in sunscreen emulsion base, pH 7, 21 days (before re-inoculation)
[7] = 0.75% active, 1.25% water in sunscreen emulsion base, pH 7, 28 days (7 days after re-inoculation)
[8] = 0.5% active, […] water in sunscreen emulsion base, pH 6.99, 2 days
[9] = 0.5% active, […] water in sunscreen emulsion base, pH 6.99, 7 days
[10] = 0.5% active, […] water in sunscreen emulsion base, pH 6.99, 21 days (before re-inoculation)
[11] = 0.5% active, […] water in sunscreen emulsion base, pH 6.99, 28 days (7 days after re-inoculation)

Row | SMILES | plate counts recovered [1, 4] | plate counts recovered [1, 5] [cfu/g] | plate counts recovered [1, 6] [cfu/g] | plate counts recovered [2, 4] | plate counts recovered [2, 5] | plate counts recovered [2, 6] | plate counts recovered [2, 7] | plate counts recovered [3, 4] | plate counts recovered [3, 5] | plate counts recovered [3, 6] | plate counts recovered [3, 7] | further results
1 | OCCCO [1,3-Propanediol] | >10^4 cfu/g | <10 | <10 | 3.40 × 10^4 cfu/g | 1.6 × 10^4 cfu/g | 9.5 × 10^4 cfu/g | >10^4 cfu/g | >10^4 cfu/g | <10 cfu/g | <10 cfu/g | 2.00 × 10^2 cfu/g | 
2 | OCCCc1ccccc1 [Phenylpropanol] | >10^4 cfu/g | <10 | <10 | 3.70 × 10^4 cfu/g | 1.80 × 10^4 cfu/g | 4.00 × 10^3 cfu/g | >10^4 cfu/g | >10^4 cfu/g | >10^4 cfu/g | 6.00 × 10^3 cfu/g | >10^4 cfu/g | plate counts recovered [1, 7]: 1.30 × 10^3 cfu/g
3 | CC(=O)CCc1ccc(O)cc1 [Raspberry ketone, 4-(4-hydroxyphenyl) butan-2-one] |  |  |  |  |  |  |  |  |  |  |  | plate counts recovered [1, 8]: >10^4 cfu/g; plate counts recovered [1, 9]: <10 cfu/g; plate counts recovered [1, 10]: <10 cfu/g; plate counts recovered [1, 11]: 2.1 × 10^2 cfu/g; plate counts recovered [2, 8]: 2.4 × 10^4 cfu/g; plate counts recovered [2, 9]: 2.40 × 10^4 cfu/g; plate counts recovered [2, 10]: 4.4 × 10^3 cfu/g; plate counts recovered [2, 11]: >10^4 cfu/g; plate counts recovered [3, 8]: >10^4 cfu/g; plate counts recovered [3, 9]: >10^4 cfu/g; plate counts recovered [3, 10]: 1.3 × 10^3 cfu/g; plate counts recovered [3, 11]: >10^4 cfu/g
